Test [1] addresses KRAS protein containing G12D mutation (Homo sapiens (Human), UniProt P01116, G12D). Briefly: SOS-catalyzed nucleotide exchange assay (GNE), TR-FRET. Format: biochemical. The settings on record: biotinylated KRAS G12D, SOS and GTP, 60-minute incubation. On the procedure:
Compounds are added to this complex and then after a 60-minute incubation time the mixture is treated with SOS and unlabeled GTP. Small molecule inhibitors stabilize the Bodipy-GDP complex whereas the untreated protein rapidly exchanges Bodipy-GDP for unlabeled GTP resulting in reduced TR-FRET signal.
This solution is referred to as biotinylated KRAS G12D stock solution.
(In general: TR-FRET usually uses a lanthanide donor and a delayed reading to cut background.)

In test [2] the test system is AsPC-1 cells containing homozygous KRAS-G12D activating mutation. In words: Cellular phospho-ERK assay (Examples 1a-106). Format: cell-based. The settings on record: AsPC-1 cells, 2 hours, ratio of p-Erk vs total Erk, read-out: IC50 (nM) pERK (Cell). The text has this:
5% CO? overnight. […] Assay plates were read on a EnVision Multimode Plate Reader (PerkinElmer) and the ratio of p-Erk vs total Erk in each well was used as the final readout.

Read-outs that look alike come from different tables or passages of the source.

The source of these data is patent publication US20240239788A1, “SMALL MOLECULE INHIBITORS OF KRAS G12D MUTANT” (Merck Sharp & Dohme LLC, priority 2021, published 2024).

For orientation: IC50 means the concentration that inhibits the measured activity by half.

Sequence of KRAS protein containing G12D mutation (P01116 other isoform, or with tags, fused parts or gaps G12D (already in the parent)): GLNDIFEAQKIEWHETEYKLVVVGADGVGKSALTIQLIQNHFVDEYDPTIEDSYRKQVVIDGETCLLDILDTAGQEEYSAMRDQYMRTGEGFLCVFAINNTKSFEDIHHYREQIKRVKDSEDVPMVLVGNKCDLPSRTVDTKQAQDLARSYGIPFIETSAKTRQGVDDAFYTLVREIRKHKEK

Consider `Cc1c(Cl)cc2[nH]nc(C)c2c1-c1c(F)cc2c(N3CC4CCC(C3)N4)nc(OCC3(CN4CC[C@@H](F)C4)CC3)nc2c1F` (single isomer, unassigned) [Ex 71a], for which the IC50 in test [1] was 18.9 nM; in test [2], 505 nM.

Turning to `C#Cc1cccc2cc(O)cc(-c3c(F)cc4c(N5C[C@H]6CC[C@@](C)(C5)N6)nc(OC[C@]5(CO)CC5(F)F)nc4c3F)c12` (single isomer, unassigned) [Ex. 90], the IC50 in test [1] worked out at 0.565 nM; in test [2] (Homo sapiens, ASPC1, 2 h), 564 nM.

As for `CN(C)CC1(COc2nc(N3CC4CCC(C3)N4)c3cc(Cl)c(-c4c5ccccc5cc5[nH]c(=O)[nH]c45)c(F)c3n2)CC1` [Example 46, 4-(4-(3,8-diazabicyclo[3.2.1]octan-3-yl)-6-chloro-2-((1-((dimethylamino)methyl)cyclopropyl)methoxy)-8-fluoroquinazolin-7-yl)-1,3-dihydro-2H-naphtho[2,3-d]imidazol-2-one], the IC50 in test [1] was found to be 9340 nM; in test [2] (Homo sapiens, ASPC1, 2 h) it was 50800 nM.

As for `CN(C)CC1(COc2nc(N3CC4CC(O)C(C3)N4)c3cc(Cl)c(-c4cc(O)cc5ccccc45)c(F)c3n2)CC1` (single isomer, unassigned) [Example 23, 3-(6-chloro-2-((1-((dimethyalmino)meth-yl)cyclopropyl)meth-oxy)-8-fluoro-7-(3-hydroxynaphthalen-1-yl)quinazolin-4-yl)-3,8-diazabicyclo[3.2.1]oc-tan-6-ol], the values for the half-inhibitory concentration (IC50) in test [1] and in test [2] were 4280 nM and 44800 nM, respectively.

On to `CN(C)CC1(COc2nc(N3CC4NC(C3)C3CC43)c3cc(Cl)c(-c4cc(O)cc5ccccc45)c(F)c3n2)CC1` (stereo not drawn) [Example 30, 4-(6-chloro-2-((1-((dimethylamino)meth-yl)cyclopropyl)meth-oxy)-8-fluoro-4-(7,9-diazatri-cyclo[3.3.1.02,4]nonan-7-yl)quinazolin-7-yl)naphthalen-2-ol], for which the IC50 in test [1] was found to be 7610 nM; in test [2] (Homo sapiens, ASPC1, 2 h), 30100 nM.

In the case of `CN(C)CC1(COc2nc(N3CC4CC(O)C(C3)N4)c3cc(Cl)c(-c4cc(O)cc5ccccc45)c(F)c3n2)CC1` (single isomer, unassigned) [Example 19a], the half-maximal inhibitory concentration (IC50) in test [1] was 1180 nM; in test [2] (Homo sapiens, ASPC1, 2 h), 50800 nM.

As to `CN(C)C[C@@]1(COc2nc(N3C[C@]4(C)CC[C@H]3CN4)c3cc(F)c(-c4cc(O)cc5ccccc45)c(F)c3n2)CC1(F)F` [Ex 83, 4-(2-(((R)-1-((dimethylamino)methyl)-2,2-difluorocyclopropyl)methoxy)-6,8-difluoro-4-((1S,4S)-4-methyl-2,5-diazabicyclo [2.2.2]octan-2-yl)quinazolin-7-yl) naphthalen-2-ol], the IC50 was 2.72 nM in test [1] and 640 nM in test [2] (Homo sapiens, ASPC1, 2 h).

`CN(C)CC1(COc2nc(N3CC4CCC(C3)N4)c3cc(Cl)c(-c4cc(C(F)(F)F)cc5[nH]ncc45)c(F)c3n2)CC1` [Example 56, 1-(1-(((4-(3,8-diazabicyclo[3.2.1]octan-3-yl)-6-chloro-8-fluoro-7-(6-(trifluoromethyl)-1H-indazol-4-yl)quinazolin-2-yl)oxy)methyl)cyclopropyl)-N,N-dimethylmethanamine]: the IC50 in test [1] was 4030 nM; in test [2] (Homo sapiens, ASPC1, 2 h), 6920 nM.

`O=C(O)C1CC1COc1nc(N2CC3CCC(C2)N3)c2cc(F)c(-c3cc(O)cc4ccccc34)c(F)c2n1` (stereo not drawn) [Example 13, 2-(((4-(3.8-diazabicyclo[3.2.1]octan-3-yl)-6,8-difluoro-7-(3-hydroxynaphthalen-1-yl)quinazolin-2-yl)oxy)methyl)cyclopropane-1-carboxylc acid]: the IC50 came out at 5880 nM in test [1] and 50800 nM in test [2].

For `CN(C)CC1(COc2nc(N3C[C@@]4(C)CC[C@H]3CN4)c3cc(Cl)c(-c4cc(O)cc5ccccc45)c(F)c3n2)CC1` (single isomer, unassigned) [Example 38b], the IC50 in test [1] came out at 3400 nM; in test [2], 22200 nM.

Take `Fc1cc2c(N3CC4CCC(C3)N4)nc(OCC3(CN4CCOCC4)CC3)nc2c(F)c1-c1cccc2sncc12` [Example 50, 4-((1-(((7-(benzo[d]isothiazol-4-yl)-4-(3,8-diazabicyclo[3.2.1]octan-3-yl)-6,8-difluoroquinazolin-2-yl)oxy)methyl)cyclopropyl)methyl) morpholine]: the IC50 in test [1] was 5180 nM; in test [2] (Homo sapiens, ASPC1, 2 h) it was 20300 nM.

For the molecule `C[C@]12CC[C@H](CN(c3nc(OCC4(CN5CCOCC5)CC4)nc4c(F)c(-c5c(F)cc(F)c6ccc(N)nc56)c(Cl)cc34)C1)N2` (single isomer, unassigned) [Ex. 91b], the IC50 is 1020 nM in test [1] and 4160 nM in test [2].

As for `Nc1nc2c(-c3c(Cl)cc4c(N5CC6CCC(C5)N6)nc(OCC5(CN6CCOCC6)CC5)nc4c3F)cccc2o1` [Example 59, 4-(4-(3,8-diazabicyclo[3.2.1]octan-3-yl)-6-chloro-8-fluoro-2-((1-(morpholinomethyl)cyclopropyl)methoxy)quinazolin-7-yl)benzo[d]oxazol-2-amine], the IC50 amounted to 20.1 nM in test [1] and 2210 nM in test [2] (Homo sapiens, ASPC1, 2 h).

Turning to `CN(C)CC1(COc2nc(N3CC4CC(O)C(C3)N4)c3cc(Cl)c(-c4cc(O)cc5ccccc45)c(F)c3n2)CC1` (single isomer, unassigned) [Example 19b], the half-inhibitory concentration (IC50) in test [1] worked out at 1790 nM; in test [2], 50800 nM.

With `Oc1ccc(SC(F)(F)F)c(-c2c(F)cc3c(N4CC5CCC(C4)N5)nc(OCC4(CN5CCOCC5)CC4)nc3c2F)c1` [Example 48, 3-(4-(3,8-diazabicyclo[3.2.1]octan-3-yl)-6,8-difluoro-2-((1-(morpholinomethyl)cyclopropyl)methoxy)quinazolin-7-yl)-4-((trifluoromethyl)thio)phenol], the IC50 in test [1] stood at 529 nM; in test [2] (Homo sapiens, ASPC1, 2 h), 6120 nM.

For `Cc1cc2[nH]ncc2c(-c2c(F)cc3c(N4C[C@H]5CC[C@@](C)(C4)N5)nc(OC[C@]4(CN(C)C)CC4(F)F)nc3c2F)c1C(F)(F)F` (single isomer, unassigned) [Ex 76b], the concentration for half-maximal inhibition (IC50) came out at 597 nM in test [1] and 4530 nM in test [2].

As for `Cc1cc2[nH]ncc2c(-c2c(F)cc3c(N4CC5CCC(C4)N5)nc(OCC4(CN(C)C)CC4(F)F)nc3c2F)c1C` (single isomer, unassigned) [Example 66b, 1-(1-(((4-(3,8-diazabicyclo [3.2.1]octan-3-yl)-7-(5,6-dimethyl-1H-indazol-4-yl)-6,8-difluoroquinazolin-2-yl)oxy)methyl)-2,2-difluorocyclopropyl)-N,N-dimethylmethanamine], the half-maximal inhibitory concentration (IC50) in test [1] came out at 31.1 nM; in test [2] it was 2120 nM.

On to `Oc1cc(-c2c(F)cc3c(N4CC5NC(C4)C(O)C5O)nc(OCC4(CN5CCOCC5)CC4)nc3c2F)c2ccccc2c1` (stereo not drawn) [Ex. 2, 3-(6,8-difluoro-7-(3-hydroxynaphthalen-1-yl)-2-((1-(morpholinomethyl)cyclopropyl)methoxy)quinazolin-4-yl)-3,8-diazabicyclo[3.2.1]octane-6,7-diol], for which the IC50 in test [1] came to 660 nM; in test [2] (Homo sapiens, ASPC1, 2 h) it was 33200 nM.

As for `CC1CC2CN(c3nc(OCC4(CN(C)C)CC4)nc4c(F)c(-c5cc(O)cc6ccccc56)c(F)cc34)CC1N2` (stereo not drawn) [Example 29, 4-(2-((1-((dimethyl-amino)methyl)cyclopro-pyl)methoxy)-6,8-difluoro-4-(6-methyl-3,8-diazabicyclo[3.2.1]oc-tan-3-yl)quinazolin-7-yl)naphthalen-2-ol], the IC50 in test [1] is 705 nM; in test [2] (Homo sapiens, ASPC1, 2 h) it was 11600 nM.

`CN(C)CC1(COc2nc(N3CC4CC(C)(O)C(C3)N4)c3cc(F)c(-c4cc(O)cc5ccccc45)c(F)c3n2)CC1` (stereo not drawn) [Example 27, 3-(2-((1-((dimethylamino)meth-yl)cyclopro-pyl)methoxy)-6,8-difluoro-7-(3-hydroxynaphthalen-1-yl)quinazolin-4-yl)-6-methyl-3,8-diazabicyclo [3.2.1]octan-6-ol]: the IC50 was determined as 496 nM in test [1] and 22500 nM in test [2] (Homo sapiens, ASPC1, 2 h).

With `CN(C)CC1(COc2nc(N3CC4CC(C#N)C(C3)N4)c3cc(F)c(-c4cc(O)cc5ccccc45)c(F)c3n2)CC1` (stereo not drawn) [Example 28, 3-(2-((1-((dimethylamino)meth-yl)cyclopro-pyl)methoxy)-6,8-difluoro-7-(3-hydroxynaphthalen-1-yl)quinazolin-4-yl)-3,8-diazabicyclo[3.2.1]oc-tane-6-carbontrile], the concentration for half-maximal inhibition (IC50) in test [1] came to 7450 nM; in test [2] (Homo sapiens, ASPC1, 2 h), 50800 nM.

As for `CN(C)C1CC[C@H]2C[C@@]12COc1nc(N2C[C@H]3CC[C@@](C)(C2)N3)c2cc(F)c(-c3cc(O)cc4ccccc34)c(F)c2n1` (single isomer, unassigned) [Example 12b], the concentration for half-maximal inhibition (IC50) in test [1] was 2.07 nM; in test [2] it was 841 nM.

Take `CN(C)CC1(COc2nc(N3C[C@H]4N[C@@](C)(C[C@@H]4O)C3)c3cc(Cl)c(-c4cc(O)cc5ccccc45)c(F)c3n2)CC1` [Example 44, (1S,5R,6S)-3-(6-chloro-2-((1-((dimethylamino)methyl)cyclopropyl)methoxy)-8-fluoro-7-(3-hydroxynaphthalen-1-yl)quinazolin-4-yl)-1-methyl-3,8-diazabicyclo [3.2.1]octan-6-ol]: the concentration for half-maximal inhibition (IC50) in test [1] was found to be 1160 nM; in test [2] (Homo sapiens, ASPC1, 2 h), 13900 nM.

With `CC[C@@H]1N[C@H]2CC[C@@H]1N(c1nc(OCC3(CN(C)C)CC3)nc3c(F)c(-c4cc(O)cc5ccccc45)c(Cl)cc13)C2` [Example 40, 4-(6-chloro-2-((1-((dimethylamino)methyl)cyclopropyl)methoxy)-4-((1S,4S,6S)-6-ethyl-2,5-diazabicyclo[2.2.2]octan-2-yl)-8-fluoroquinazolin-7-yl)naphthalen-2-ol], the IC50 in test [1] came to 689 nM; in test [2] (Homo sapiens, ASPC1, 2 h), 22000 nM.
